29 compounds from US20240158412A1 (Faxian Therapeutics, LLC, priority 2021, published 2024) can be followed below.
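Further: fluorescence intensity readout of USP7 enzymatic activity, reaction incubated 90 min at room temperature.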

Sequence of USP7 (Q93009 whole entry): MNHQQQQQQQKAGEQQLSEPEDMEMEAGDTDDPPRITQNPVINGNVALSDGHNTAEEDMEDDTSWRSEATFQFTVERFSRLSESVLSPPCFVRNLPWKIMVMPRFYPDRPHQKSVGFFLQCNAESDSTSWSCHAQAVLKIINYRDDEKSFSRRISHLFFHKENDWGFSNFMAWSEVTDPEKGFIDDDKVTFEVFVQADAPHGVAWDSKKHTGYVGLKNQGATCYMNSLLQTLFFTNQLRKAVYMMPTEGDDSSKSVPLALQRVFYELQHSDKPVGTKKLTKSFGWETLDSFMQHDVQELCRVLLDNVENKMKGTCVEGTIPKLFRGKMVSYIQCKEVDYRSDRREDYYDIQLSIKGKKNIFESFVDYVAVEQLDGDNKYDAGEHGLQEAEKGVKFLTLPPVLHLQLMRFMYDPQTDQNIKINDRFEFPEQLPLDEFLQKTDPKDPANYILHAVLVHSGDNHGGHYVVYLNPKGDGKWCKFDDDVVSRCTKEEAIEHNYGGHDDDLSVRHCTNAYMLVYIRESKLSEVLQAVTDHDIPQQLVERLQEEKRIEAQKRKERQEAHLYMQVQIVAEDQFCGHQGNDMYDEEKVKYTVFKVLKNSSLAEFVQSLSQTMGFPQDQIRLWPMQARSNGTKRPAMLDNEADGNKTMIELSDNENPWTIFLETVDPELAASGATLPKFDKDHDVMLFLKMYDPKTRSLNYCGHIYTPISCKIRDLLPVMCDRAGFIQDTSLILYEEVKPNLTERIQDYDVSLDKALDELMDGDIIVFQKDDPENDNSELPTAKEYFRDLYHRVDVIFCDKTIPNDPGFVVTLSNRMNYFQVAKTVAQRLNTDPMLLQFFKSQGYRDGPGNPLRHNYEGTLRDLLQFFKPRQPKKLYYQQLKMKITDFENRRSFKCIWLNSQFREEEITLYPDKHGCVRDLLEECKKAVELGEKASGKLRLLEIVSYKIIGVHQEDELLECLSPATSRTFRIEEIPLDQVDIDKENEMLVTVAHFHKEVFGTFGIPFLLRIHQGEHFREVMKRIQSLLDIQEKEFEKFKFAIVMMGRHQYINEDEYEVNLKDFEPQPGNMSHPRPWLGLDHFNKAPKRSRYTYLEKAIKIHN

The assay has as its target USP7 (Homo sapiens, UniProt Q93009). The experiment in a line: biochemical.
For the compound `Cc1cnn(Cc2cc3nccc(-c4cc(C#N)cc5c4N([C@@H]4CNC(C)(C)C4)CCO5)c3s2)c(=O)c1` [Example 134, (S)-4-(5,5-dimethylpyrrolidin-3-yl)-5-(2-((4-methyl-6-oxopyridazin-1(6H)-yl)methyl)thieno[3,2-b]pyridin-7-yl)-3,4-dihydro-2H-benzo[b][1,4]oxazine-7-carbonitrile], the IC50 was less than 10 nM.

On to `O=c1ccn(CC(F)F)c(=O)n1Cc1cc2nccc(-c3cc(Cl)cc4c3N(C3CNC3)CCC4)c2s1` [Example 23, 3-[[7-[1-(azetidin-3-yl)-6-chloro-3,4-dihydro-2H-quinolin-8-yl]thieno[3,2-b]pyridin-2-yl]methyl]-1-(2,2-difluoroethyl)pyrimidine-2,4-dione], for which the IC50 is less than 10 nM.

Compound `O=c1ccn(C2CC2)c(=O)n1Cc1cc2nccc(-c3cc(C(F)(F)F)cc4c3N(C3CNC5(CCC5)C3)CCC4)c2s1` (single isomer, unassigned) [Example 162b] showed an IC50 of 101 to 1000 nM.

In the case of `O=C1CCC(=O)N1Cc1cc2nccc(-c3cccc4c3N([C@@H]3CCNC3)CCO4)c2s1` (single isomer, unassigned) [Example 111b], the IC50 was more than 1000 nM.

In the case of `O=C1CCC(=O)N1Cc1cc2nccc(-c3cc(Cl)cc4c3N(C3CN(C5COC5)C3)CCC4)c2s1` [Example 6, 1-((7-(6-chloro-1-(1-(oxetan-3-yl)azetidin-3-yl)-1,2,3,4-tetrahydroquinolin-8-yl)thieno[3,2-b]pyridin-2-yl)methyl)pyrrolidine-2,5-dione], the IC50 lay in the range of 10 to 100 nM.

In turn, `O=C1CCC(=O)N1Cc1cc2nccc(-c3cc(Cl)cc4c3N([C@H]3CO[C@@H](CO)C3)CCO4)c2s1` (single isomer, unassigned) [Example 227a] yielded an IC50 of more than 1000 nM.

`O=C1CCC(=O)N1Cc1cc2nccc(-c3cc(Cl)cc4c3N([C@@H]3CCCNC3)CCC4)c2s1` (single isomer, unassigned) [Example 51b] registered an IC50 of 10 to 100 nM.

Take `O=c1ccn(CC(F)(F)F)c(=O)n1Cc1cc2nccc(-c3cc(Cl)cc4c3N([C@H]3CCNC3)CCC4)c2s1` [Example 55, (S)-3-((7-(6-chloro-1-(pyrrolidin-3-yl)-1,2,3,4-tetrahydroquinolin-8-yl)thieno[3,2-b]pyridin-2-yl)methyl)-1-(2,2,2-trifluoroethyl)pyrimidine-2,4(1H,3H)-dione]: the IC50 is less than 10 nM.

In turn, `O=c1c2ccccc2cnn1Cc1cc2nccc(-c3cc(Cl)cc4c3N(C3CNC3)CCC4)c2s1` [Example 21, 2-[[7-[1-(azetidin-3-yl)-6-chloro-3,4-dihydro-2H-quinolin-8-yl]thieno[3,2-b]pyridin-2-yl]methyl]phthalazin-1-one] registered a 50% inhibitory concentration (IC50) of 101 to 1000 nM.

`O=c1cc(CC(F)F)cnn1Cc1cc2nccc(-c3cc(Cl)cc4c3N([C@H]3CCNC3)CCC4)c2s1` [Example 105, (S)-2-((7-(6-chloro-1-(pyrrolidin-3-yl)-1,2,3,4-tetrahydroquinolin-8-yl)thieno[3,2-b]pyridin-2-yl)methyl)-5-(2,2-difluoroethyl)pyridazin-3(2H)-one] registered an IC50 of less than 10 nM.

`O=C1CCC(=O)N1Cc1cc2nccc(-c3cc(Cl)cc4c3N(C3CNC3)CCO4)c2s1` [Example 54, 1-[[7-[4-(azetidin-3-yl)-7-chloro-2,3-dihydro-1,4-benzoxazin-5-yl]thieno[3,2-b]pyridin-2-yl]methyl]pyrrolidine-2,5-dione] registered an IC50 of 10 to 100 nM.

With `COC[C@@]1(C)C[C@H](N2CCCc3cc(Cl)cc(-c4ccnc5cc(CN6C(=O)CCC6=O)sc45)c32)CN1` [Example 200, 1-((7-(6-chloro-1-((3S,5R)-5-(methoxymethyl)-5-methylpyrrolidin-3-yl)-1,2,3,4-tetrahydroquinolin-8-yl)thieno[3,2-b]pyridin-2-yl)methyl)pyrrolidine-2,5-dione], the IC50 was in the range of 10 to 100 nM.

Regarding `CN1CC(N2CCCc3cc(Cl)cc(-c4ccnc5cc(CN6C(=O)CCC6=O)sc45)c32)C1` [Example 2, 1-((7-(6-chloro-1-(1-methylazetidin-3-yl)-1,2,3,4-tetrahydroquinolin-8-yl)thieno[3,2-b]pyridin-2-yl)methyl)pyrrolidine-2,5-dione], the IC50 was in the range of 10 to 100 nM.

Compound `O=c1ccn(CC(F)F)c(=O)n1Cc1cc2nccc(-c3cc(Cl)cc4c3N(C3CCNC3)C[C@H]3C[C@@H]43)c2s1` (stereo in doubt) [Example 115, 3-[[7-[(1aS,3R,7bR)-6-chloro-3-pyrrolidin-3-yl-1,1a,2,7b-tetrahydrocyclopropa[c]quinolin-4-yl]thieno[3,2-b]pyridin-2-yl]methyl]-1-(2,2-difluoroethyl)pyrimidine-2,4-dione] displayed an IC50 of less than 10 nM.

Turning to `N#Cc1cc(-c2ccnc3cc(CN4C(=O)CCC4=O)sc23)c2c(c1)[C@@H]1C[C@@H]1CN2[C@@H]1CNC2(CCC2)C1` [Example 168, (1aS,7bR)-4-(2-((2,5-dioxopyrrolidin-1-yl)methyl)thieno[3,2-b]pyridin-7-yl)-3-((S)-5-azaspiro[3.4]octan-7-yl)-1a,2,3,7b-tetrahydro-1H-cyclopropa[c]quinoline-6-carbonitrile], the IC50 was less than 10 nM.

Consider `CC1(C)C[C@H](N2CCOc3cc(C#N)cc(-c4ccnc5cc(Cn6ncc(C(C)(C)C)cc6=O)sc45)c32)CN1` [Example 136, (S)-5-(2-((4-(tert-butyl)-6-oxopyridazin-1(6H)-yl)methyl)thieno[3,2-b]pyridin-7-yl)-4-(5,5-dimethylpyrrolidin-3-yl)-3,4-dihydro-2H-benzo[b][1,4]oxazine-7-carbonitrile], for which the IC50 was less than 10 nM.

`C[C@]1(CO)C[C@H](N2C(=O)COc3cc(C#N)cc(-c4ccnc5cc(Cn6ncc(C7(C(F)(F)F)CC7)cc6=O)sc45)c32)CN1` [Example 226, 4-[(3S,5R)-5-(hydroxymethyl)-5-methyl-pyrrolidin-3-yl]-3-oxo-5-[2-[[6-oxo-4-[1-(trifluoromethyl)cyclopropyl]pyridazin-1-yl]methyl]thieno[3,2-b]pyridin-7-yl]-1,4-benzoxazine-7-carbonitrile]: the IC50 is less than 10 nM.

In turn, `O=c1n(Cc2cc3nccc(-c4cc(Cl)cc5c4N([C@H]4CCNC4)CCC5)c3s2)nc2n1CCC2` [Example 68, (S)-2-((7-(6-chloro-1-(pyrrolidin-3-yl)-1,2,3,4-tetrahydroquinolin-8-yl)thieno[3,2-b]pyridin-2-yl)methyl)-6,7-dihydro-2H-pyrrolo[2,1-c][1,2,4]triazol-3(5H)-one] showed an IC50 of less than 10 nM.

In turn, `N#Cc1cc2c(c(-c3ccnc4cc(Cn5c(=O)ccn(CC(F)(F)F)c5=O)sc34)c1)N([C@H]1CCN([C@H]3CC[C@@H]3O)C1)CCC2` (single isomer, unassigned) [Example 107b] yielded an IC50 of 10 to 100 nM.

`N#Cc1cc2c(c(-c3ccnc4cc(Cn5c(=O)ccn(C6CC(F)(F)C6)c5=O)sc34)c1)N([C@@H]1CN[C@@H](CO)C1)CCC2` [Example 191, 8-(2-((3-(3,3-difluorocyclobutyl)-2,6-dioxo-2,3-dihydropyrimidin-1(6H)-yl)methyl)thieno[3,2-b]pyridin-7-yl)-1-((3S,5R)-5-(hydroxymethyl)pyrrolidin-3-yl)-1,2,3,4-tetrahydroquinoline-6-carbonitrile] yielded an IC50 of less than 10 nM.

Compound `C[C@H](c1cc2nccc(-c3cc(C#N)cc4c3N([C@@H]3CCNC3)CCC4)c2s1)N1C(=O)CCC1=O` (single isomer, unassigned) [Example 112c] had an IC50 of 101 to 1000 nM.

As to `C[C@]1(CO)C[C@H](N2CCCc3cc(C#N)cc(-c4ccnc5cc(CN6C(=O)C7CC7C6=O)sc45)c32)CN1` (stereo partly drawn) [Example 206, 8-(2-((2,4-dioxo-3-azabicyclo[3.1.0]hexan-3-yl)methyl)thieno[3,2-b]pyridin-7-yl)-1-((3S,5R)-5-(hydroxymethyl)-5-methylpyrrolidin-3-yl)-1,2,3,4-tetrahydroquinoline-6-carbonitrile], the IC50 is less than 10 nM.

On to `N#Cc1cc2c(c(-c3ncnc4cc(Cn5c(=O)ccn(CC(F)(F)F)c5=O)sc34)c1)N([C@@H]1CCNC1)CCC2` [Example 93, (R)-8-(6-((2,6-dioxo-3-(2,2,2-trifluoroethyl)-2,3-dihydropyrimidin-1(6H)-yl)methyl)thieno[3,2-d]pyrimidin-4-yl)-1-(pyrrolidin-3-yl)-1,2,3,4-tetrahydroquinoline-6-carbonitrile], for which the IC50 was less than 10 nM.

As to `CC1(C)CC(N2CCOc3cc(C#N)cc(-c4ccnc5cc(Cn6c(=O)ccn(CC(F)(F)F)c6=O)sc45)c32)CN1` (single isomer, unassigned) [Example 133b], the IC50 fell in the range of 101 to 1000 nM.

`Cn1cc(Cc2cc3nccc(-c4cc(Cl)cc5c4N([C@H]4CCNC4)CCC5)c3s2)nn1` (single isomer, unassigned) [Example 99] came in with an IC50 of 10 to 100 nM.

Compound `Cn1ccc(=O)n(Cc2cc3nccc(-c4cc(C#N)cc5c4N([C@H]4CCNC4)CCC5)c3s2)c1=O` [Example 87, (S)-8-(2-((3-methyl-2,6-dioxo-2,3-dihydropyrimidin-1(6H)-yl)methyl)thieno[3,2-b]pyridin-7-yl)-1-(pyrrolidin-3-yl)-1,2,3,4-tetrahydroquinoline-6-carbonitrile] registered an IC50 of less than 10 nM.

Consider `N#Cc1cc(-c2ccnc3cc(Cn4c(=O)ccn(CC(F)F)c4=O)sc23)c2c(c1)[C@@H]1C[C@@H]1CN2[C@H]1CCNC1` [Example 117d, (1aS,7bR)-4-[2-[[3-(2,2-difluoroethyl)-2,6-dioxo-pyrimidin-1-yl]methyl]thieno[3,2-b]pyridin-7-yl]-3-[(3S)-pyrrolidin-3-yl]-1,1a,2,7b-tetrahydrocyclopropa[c]quinoline-6-carbonitrile], for which the IC50 was less than 10 nM.

The compound `O=C1CCC(=O)N1Cc1cc2nccc(-c3cc(Cl)cc4c3N([C@H]3CNC5(CCC5)C3)C[C@@H]3C[C@H]43)c2s1` [Example 165b, 1-((7-((1aR,7bS)-6-chloro-3-((R)-5-azaspiro[3.4]octan-7-yl)-1a,2,3,7b-tetrahydro-1H-cyclopropa[c]quinolin-4-yl)thieno[3,2-b]pyridin-2-yl)methyl)pyrrolidine-2,5-dione] showed an IC50 of 101 to 1000 nM.

Compound `N[C@H]1C[C@@H](N2CCCc3cc(Cl)cc(-c4ccnc5cc(CN6C(=O)CCC6=O)sc45)c32)C1` (single isomer, unassigned) [Example 42a, cis-1-((7-(1-(3-aminocyclobutyl)-6-chloro-1,2,3,4-tetrahydroquinolin-8-yl)thieno[3,2-b]pyridin-2-yl)methyl)pyrrolidine-2,5-dione] showed an IC50 of less than 10 nM.

The term IC50 denotes the concentration needed to halve the response being measured. A high value points to weaker potency.
